This note sets out measurements from patent US20220062233A1 (The Board of Trustees of the Leland Stanford Junior …, priority 2018, published 2022).

One data set relates to mutant HTT. Put plainly: Mutant HTT assay in induced pluripotent stem cells (iPSC). Format: cell-based, human. To be noted: HD patient iPSCs, one day incubation; class symbols; read-out: iPSC IC20 (nM) mHTT. An outline of the steps:
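Huntington's disease patient iPSCs (ND50036) plated at 7,000 cells/well, compound-treated after 48 h for one day in mTeSR1. Lysates normalised by BCA protein, then mutant HTT measured by sandwich ELISA: anti-human HTT capture, biotinylated mutant-HTT-specific detection, streptavidin-HRP/TMB colorimetric readout, interpolated from a standard curve.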

A short description of data set [1]: In vivo pharmacokinetics and brain penetration, single dose, mouse. To be noted: for clearance / half-life / Vd / Cmax: C57BL6, blood; for clearance / half-life / Vd: intravenous, 0.5 mg/kg; for clearance / half-life / Vd / Cmax / Kp / Fabs (%): Mouse; for clearance / half-life / Vd / Cmax / Kp: single dose; for half-life: read-out: Elimination Half-life (converted); for Vd: read-out: Vdss; for Cmax: oral, 5 mg/kg, read-out: Cmax (maximum concentration in blood or plasma); for Kp: C57BL6, brain / blood, averaged over collection time points, read-out: BB_Ratios (brain-to-blood concentration ratio); for Fabs (%): single dose IV/PO. On the procedure: (§1) B. In Vivo Pharmacokinetics and Brain Penetration
(§2) The pharmacokinetic assessment was carried out in rodents (e.g. Sprague-Dawley rats or C57BL6 mice) after a single dose administration by IV (e.g., 0.5 mg/kg) or PO (e.g., 5 mg/kg). Biological samples were collected at pre-determined time points, batch-processed, and the test articles were extracted and quantified with LC-MS, utilizing internal standards and separately prepared calibration curves. Blood (or plasma) concentration to time profiles were acquired for compounds and a selected list is presented in Table 6 with the non-compartmental PK parameters (e.g., peak concentration in circulation (Cmax), absolute bioavailability (Fabs), elimination half-life, clearance (CL), and volume of distribution at steady state (Vdss)). Upon terminal collection, the brains were also collected and homogenized in an extraction buffer, followed by quantification with LC-MS. After brain concentration levels (ng/g of brain tissue) were determined, the mean ratios of the brain-to-blood (BB) concentration (or brain-to-plasma concentration) at various collection time points were averaged, then shown in Table 6 as BB Ratio to indicate the extent of brain penetration.
FIG. 1A is a graph showing in vitro mouse hepatocyte stability on compound #2 (closed circle) and compound #42 (open circle). FIG. 1B is a graph showing blood concentration-time profile of mouse (N=3 per group) after IV administration of 0.5 mg/kg of compound #2 (closed circle) or #42 (open circle), or PO administration of 5 mg/kg of compound #2 (closed triangle) or #42 (open triangle).

Data set [2] has as its system Gmr::HTT97Q fly (mutant HTT, rough eye). Put plainly: HD-Drosophila phenotypic assay (rough eye analysis). The format is in vivo, Drosophila melanogaster. To be noted: Gmr-HTT97Q flies, compound 10 μM in media. The text has this: D. Alleviation of Neuron Degeneration Phenotypes of Mutant HTT in Drosophila HD Models
The Drosophila melanogaster (fruit fly) HD models carry the coding sequence of human HTT exon1 with 97 CAG repeats to mimic mutant HTT of Huntington's disease (HD). The Gmr::HTT97Q fly, expressing mutant HTT primarily in the neurons of Drosophila compound eyes, has a severe degeneration of photoreceptor neurons and the phenotypic trait ‘rough eye’. All of the fly stocks and genetics crosses are maintained at 25° C. on standard cornmeal yeast agar media.
b. Eye Morphology (Rough Eye) Analysis
Fifteen adult male flies (Gmr-HTT97Q/Gmr-HTT97Q or Gmr/Gmr) are crossed with 15 virgin female flies W1118(+/+) in a vial containing standard yeast agar media with the compound in a concentration of 10 μM. Parent-flies are removed from vials at day 7, followed by a collection of newly hatched flies for ‘rough eye’ analysis. The morphology of compound eyes is captured using a Leica DMR upright microscope equipped with a digital camera (CoolSNAP 5.0, Photometrics). To increase the depth of field, imaging software is used to create montage composite images (Helicon Focus, HeliconSoft). A total of 10 flies are collected for analysis in each individual condition, and the biological experiment is conducted three times. DMSO, the reagent solvent of the compound, is included as a control.

Data set [3] in a line: In vivo pharmacokinetics and brain penetration, single dose, rat. On the procedure:
as §1, §2

[4] abbreviates: mouse, PO 5 mg/kg, compound #42 versus #2.

Consider `OCCOCc1ccc(CN[C@@H]2CCCc3c2[nH]c2ccc(Br)cc32)cc1` (single isomer, unassigned) [Compound 28], for which the IC20 (commonly the concentration at which the effect reaches the 20% level) in the data set with mutant HTT is < 100 nM. In addition, in data set [1], the clearance (in general, the rate of elimination divided by the concentration) was 16.7 mL/min/kg; the half-life (commonly the time needed for the level to fall by half in the phase considered) was 2.4 h; the Vd was 3.3 L/kg; the Cmax is > 300 nM. In addition, in data set [1], the Kp was ≥ 1 and the “Fabs (%)” value is >70%.
Take `OCc1ccc(CNC2CCCc3c2[nH]c2ccc(Br)cc32)cc1` (stereo not drawn) [Compound 1]: in data set [2], the “HD-Drosophila Phenotypic assay (rescue of rough eye phenotype)” value is listed as “& (rough eye phenotype of HD flies is rescued by testing compound greater than 40%)”. Besides, the Kp in data set [3] (Sprague-Dawley, brain / blood, single dose, averaged over collection time points, read-out: BB_Ratios (brain-to-blood concentration ratio)) was ≥ 1. In data set [3] (Sprague-Dawley, in vivo, intravenous, single dose), this compound showed a clearance of 85 mL/min/kg. Besides, the Vd in data set [3] (Sprague-Dawley, in vivo, intravenous, single dose, read-out: Vdss) amounted to 12 L/kg. Also, in data set [3] (Sprague-Dawley, in vivo, single dose, read-out: Cmax (maximum concentration in blood or plasma)), the Cmax lay within 100 to 300 nM. Besides, the half-life in data set [3] (Sprague-Dawley, in vivo, single dose, read-out: Elimination Half-life (converted)) was 1.9 h. Further, the “Fabs (%)” value in data set [3] (single dose IV/PO) is given as <30%.
On to `[2H]C([2H])(O)c1ccc(CN[C@@H]2CCCc3c2[nH]c2ccc(Br)cc32)cc1` [Compound 42, (R)-(4-(((6-bromo-2,3,4,9-tetrahydro-1H-carbazol-1-yl)amino)methyl)phenyl)methan-d2-ol], for which, in the data set on mutant HTT, the IC20 was < 100 nM. Further, in data set [1], the clearance was 80 mL/min/kg, the half-life was 1.2 h, the Vd is 7.2 L/kg and the Cmax fell in the range of 100 to 300 nM. Further, the “Fabs (%)” value in data set [1] is on record as <30%. Further, the “elimination half-life (comparison)” value in data set [1] (mouse, IV 0.5 mg/kg, compound #42 versus #2, FIG. 1B) is reported as “longer”. Further, in data set [1] (setting [4]), the “Cmax (comparison)” value was “significantly increased” and the “Fabs (comparison)” value is given as “significantly increased”. Also, in data set [1] (mouse, randomized cross-over after 48-hour washout, compound #42 versus #2), the “CL (comparison)” value is “slower CL”.
Take `CC(C)(O)c1ccc(CN[C@@H]2CCCc3c2[nH]c2ccc(Br)cc32)cc1` [Compound 31, (R)-2-(4-(((6-bromo-2,3,4,9-tetrahydro-1H-carbazol-1-yl)amino)methyl)phenyl)propan-2-ol]: in the data set on mutant HTT, the IC20 was < 100 nM. Besides, in data set [1], the clearance is 50 mL/min/kg, the half-life is 2.6 h, the Vd came to 9.1 L/kg and the Cmax was in the range of 100 to 300 nM. Besides, in data set [1], the Kp was ≥ 1 and the “Fabs (%)” value is 30-70%.
For `OCc1ccc(CN[C@@H]2CCCc3c2[nH]c2ccc(Br)cc32)cc1` [Compound 2, (R)-(4-(((6-bromo-2,3,4,9-tetrahydro-1H-carbazol-1-yl)amino)methyl)phenyl)methanol], in the data set on mutant HTT, the IC20 is < 100 nM. For the same compound, the “HD-Drosophila Phenotypic assay (rescue of rough eye phenotype)” value in data set [2] is “& (rough eye phenotype of HD flies is rescued by testing compound greater than 40%)”. For the same compound, in data set [1], the clearance was 183 mL/min/kg, the half-life is 0.8 h, the Vd came out at 11 L/kg and the Cmax was < 100 nM. Moreover, the “Fabs (%)” value in data set [1] is on record as <30%.
Consider `CS(=N)(=O)c1ccc(CN[C@@H]2CCCc3c2[nH]c2ccc(Br)cc32)cc1` (stereo partly drawn) [Compound 49, (4-((((R)-6-bromo-2,3,4,9-tetrahydro-1H-carbazol-1-yl)amino)methyl)phenyl)(imino)(methyl)-λ^6-sulfanone], for which, in the data set on mutant HTT, the IC20 was < 100 nM. For the same compound, in data set [1], the clearance is 55 mL/min/kg, the half-life is 1.1 h, the Vd is 5.1 L/kg and the Cmax is > 300 nM. Besides, in data set [1], the Kp was ≥ 1 and the “Fabs (%)” value is reported as <30%.
